Results on eight molecules are retold here after US7973145B2, “Sulfonated sugar compounds, pharmaceutical compositions which contain the same, and methods of treating tumors with the same” (priority 2007, dated 2011).

Data set [1] relates to bone marrow cells (immature erythrocytes). Description: Micronucleus test by rat intravenous administration. Format: in vivo. The note with it: male SD rats. On the procedure:
Five male SD rats were assigned to each of the six groups (1) to (6): The test solutions for (1) to (5) contained a normal saline solution containing 10% CREMOPHOR EL as the solvents, and the above-described doses were administered to the rats twice in total for two consecutive days. To the positive control group, the above-described dose was administered once. About 24 hours after the administration, bone marrow smears were prepared. Two thousands of immature erythrocytes were counted for each individual, and the incidence of immature erythrocytes having a micronucleus was calculated. As the index of marrow proliferation suppression, the proportion of immature erythrocytes contained in 1000 erythrocytes was calculated. […] In addition, no influence was found on the marrow proliferation suppression in the test substance-administered group.

The subject of data set [2] is human vascular endothelial cells and human fibrocytes. Description: Tube formation inhibition test using vascular endothelial cell-fibrocyte cocultivation system (angiogenesis kit KZ-1000). Format: cell-based. Conditions: FIG. 10, combined with 2 Gy radiation, calcium(salt)-substituted compound, 10 ng/ml VEGF-A. The method, then:
Using a angiogenesis kit (KZ-1000) manufactured by Kurabo Industries Ltd., which is a cocultivation system for human vascular endothelial cells and human fibrocytes, the effects of αSQAP C10:0, αSQAP C14:0, αSQAP C18:0, αSQAP C22:0, βSQAP C18:0, and βSQAP C18:1 on tube formation were examined. Cultivation for tube formation using the kit was conducted according to the manufacturer's instruction manual.
Using a medium containing a final concentration of 10 ng/ml of VEGF-A and being designed specifically for angiogenesis, the respective SQAP compounds were prepared to have intended concentrations. On Day 1 of the cell cultivation, special media each containing SQAP compounds at the respective concentrations and DMSO (negative control) were added to the cultivation systems. The systems were cultivated for 30 minutes, and irradiated with 2 Gy of cobalt 60. Thereafter, on Days 4, 7, and 10 of the cultivation, the media were replaced with newly prepared special media containing SQAP or DMSO. The media were removed on Day 11 of the cultivation, fixed with 70% ethanol, and the formed tubes were stained with anti-human CD31 antibody. The stained figures were photographed under an optical microscope, and the quantity of tube formation was calculated by the image analysis. The angiogenesis index was calculated according to the manufacturer's instruction manual.

Data set [3] deals with Human esophageal squamous cell carcinoma cells TE-8. Description: Radiosensitizing effect test, tumor-bearing mouse, human esophageal squamous cell carcinoma. It counts as in vivo, KSN nude mice. On the procedure: (§1) The radiosensitizing effect was examined through tumor-bearing mouse experiment.
Human esophageal squamous cell carcinoma cells TE-8 were transplanted into the right femoral region of KSN nude mice in a ratio of 1×10^6 cells per individual. Subsequently, the mice were bred for about 14 days to form a tumor mass of about 150 mm^3 in each individual. Thereafter, four mice were assigned to each of the following groups (1) to (4):
(§2) The drug was administered from Day 1 to Day 5, 2 mg/kg once a day. The subjects were exposed to radiation emitted from an X-ray generator (HS-225, manufactured by Shimadzu Co., Ltd.) at a dose of 2 Gy on Day 1 and Day 4. The tumor volume was calculated according to the calculation formula: (minor axis)^2×major axis×0.5.
This experiment was conducted in the same manner as Example V-1, except that the drug dose administered from Day 1 to Day 5 was 1 mg/kg once a day, and the radiation dose was 4 Gy, and the tumor volume was measured.
Human esophageal squamous cell carcinoma cells TE-8 were transplanted into the right femoral region of KSN nude mice in a ratio of 1×10^6 cells per individual. After a tumor mass of about 50 mm^3 was formed in each individual, four mice were assigned to each of the four groups (1) to (4):
The drug was administered intraperitoneally from Day 1 to Day 5, 1 mg/kg once a day. The subjects were exposed to radiation emitted from an X-ray generator (HS-225, manufactured by Shimadzu Co., Ltd.) at a dose of 4 Gy on Day 1 and Day 4.

Data set [4] has as its system Human colonic adenocarcinoma cells SW480. Description: Radiosensitizing effect test, tumor-bearing mouse, human colonic adenocarcinoma. Format: in vivo, KSN nude mice. The method, then:
as §1
Human colonic adenocarcinoma cells SW480 were transplanted into the right femoral region of KSN nude mice in a ratio of 1×10^6 cells per individual. Subsequently, the mice were bred for about 14 days to form a tumor mass of about 150 mm^3 in each individual.
as §2
Human colonic adenocarcinoma cells SW480 were transplanted into the right femoral region of KSN nude mice in a ratio of 2×10^6 cells per individual. After a tumor mass of about 50 mm^3 was formed in each individual, four mice were assigned to each of the four groups (1) to (4):
The drug was administered from the tail vein from Day 1 to Day 5, 1 mg/kg once a day. The subjects were exposed to radiation emitted from an X-ray generator (HS-225, manufactured by Shimadzu Co., Ltd.) at a dose of 2 Gy on Day 1 and Day 4.

Data set [5] has the same test system. In words: Antineoplastic effect test (drug alone), tumor-bearing mouse. Conditions: Example VI, FIG. 9; calcium(salt)-substituted compound alone, intraperitoneally 20 mg/kg once a day Day 1 to Day 14. It counts as in vivo, KSN nude mice. The method, then:
Human colonic adenocarcinoma cells SW480 were transplanted into the right femoral region of KSN nude mice in a ratio of 2×10^6 cells per individual. After a tumor mass of about 50 mm^3 was formed in each individual, four mice were assigned to each of the two groups (1) and (2):
The drug was administered intraperitoneally from Day 1 to Day 14, 20 mg/kg once a day.

Data set [6] concerns Salmonella typhimurium and Escherichia coli indicator bacterial strains. Description: Reverse mutation assay (Ames test). The note with it: 2 μg to 5000 μg per plate, presence or absence of S9 mix, all five strains. (In general: The Ames test detects mutagens through reverse mutation in bacteria.)
The nature of data set [7]: Solubility measurement in injectable water. Format: physicochemical. The note with it: 1 g in 5 ml of injectable water.
A further data set has as its system SD rats. Description: Single dose (acute) toxicity test. Format: in vivo. The note with it: female and male SD rats, single dose via tail vein. On the procedure: Using αSQAP C18:0, an acute toxicity test was conducted on rats. Five female and five male SD rats of 5 to 6 weeks old were assigned to each of the groups (1) to (7):
The test solution for (1) and (4) to (7) contained a normal saline solution containing 10% CREMOPHOR EL, (2) contained a normal saline solution containing 2.5% CREMOPHOR EL, and (3) contained a normal saline solution containing 5% CREMOPHOR EL as the solvents.

Where [8] appears, read: intravenous, 25 to 200 mg/kg twice for two consecutive days.
[9] abbreviates: final concentrations of 5, 10, and 20 μM.
The mark [10] stands for this setting: Examples V-5 and V-6, FIG. 7 and 8, calcium(salt)-substituted compound, intraperitoneally 1 mg/kg once a day Day 1 to Day 5 plus X-ray 4 Gy on Day 1 and Day 4.
Setting [11] is: final concentrations of 5 and 10 μM.

As for “3-O-(6-sulfo-α-D-quinovopyranosyl)-1-O-stearoyl-propane-1,3-diol calcium salt [αSQAP C18:0 calcium salt]”, the “incidence of micronuclei (immature erythrocytes having a micronucleus) in comparison with the non-administered group” value in data set [1] (intravenous, 25, 50, 100, 200 mg/kg twice for two consecutive days, bone marrow about 24 hours after) is listed as “no significant increase”. Further, in data set [1] (setting [8]), the “chromosomal aberration in bone marrow cells” value is reported as “inducing no chromosomal aberration” and the “marrow proliferation suppression (proportion of immature erythrocytes in 1000 erythrocytes)” value was “no influence”.
Consider `CCCCCCCCCC(=O)OCCCO[C@H]1O[C@H](CS(=O)(=O)[O-])[C@@H](O)[C@H](O)[C@H]1O.[Na+]` [αSQAP C10:0, 3-O-(6-sulfo-α-D-quinovopyranosyl)-1-O-decanoyl-propane-1,3-diol sodium salt], for which the tube formation entry in data set [2] (setting [9]) is listed as “inhibited tube formation in a concentration-dependent manner”. In addition, in data set [3] (setting [10]), the “increase of the tumor volume, drug plus radiotherapy, in comparison with other groups” value (shortened to “increase of the tumor volume … with other groups”) is listed as “most suppressed”.
As to `CCCCCCCCCCCCCC(=O)OCCCO[C@H]1O[C@H](CS(=O)(=O)[O-])[C@@H](O)[C@H](O)[C@H]1O.[Na+]` [αSQAP C14:0, 3-O-(6-sulfo-α-D-quinovopyranosyl)-1-O-myristoyl-propane-1,3-diol sodium salt], in data set [2] (setting [9]), the tube formation entry was “inhibited tube formation in a concentration-dependent manner”.
Regarding `CCCCCCCCCCCCCCCCCC(=O)OCCCO[C@H]1O[C@H](CS(=O)(=O)[O-])[C@@H](O)[C@H](O)[C@H]1O.[Na+]` [αSQAP C18:0, 3-O-(6-sulfo-α-D-quinovopyranosyl)-1-O-stearoyl-propane-1,3-diol sodium salt], the tube formation entry in data set [2] (setting [9]) is “inhibited tube formation in a concentration-dependent manner”. Also, the “increase of the tumor volume, drug plus radiotherapy” value in data set [4] (Example V-3, FIG. 5, 2 mg/kg once a day Day 1 to Day 5 plus X-ray 2 Gy on Day 1 and Day 4) is listed as “markedly suppressed”. Also, the “increase of the tumor volume … with other groups” value in data set [4] (Example V-4, FIG. 6, calcium(salt)-substituted compound, tail vein 1 mg/kg once a day Day 1 to Day 5 plus X-ray 2 Gy on Day 1 and Day 4) was “most suppressed”; in data set [3] (Example V-2, FIG. 4, 1 mg/kg once a day Day 1 to Day 5 plus X-ray 4 Gy) it was “most strongly suppressed”; in data set [3] (setting [10]) it was “most suppressed”. The “increase of the tumor volume in comparison with the non-administered group” value in data set [5] is reported as “markedly suppressed”. Also, the mutagenicity result in data set [6] is reported as “negative”. Besides, the “number of revertant colonies” value in data set [6] (calcium(salt)-substituted compound) is “did not increase”. Also, in data set [3] (Example V-1, FIG. 3, drug alone (un-irradiated), 2 mg/kg once a day Day 1 to Day 5, versus 2 Gy on Day 1 and Day 4 alone), the “suppression of the increase of the tumor volume compared with radiotherapy alone” value is “at the same level”. The “increment of the tumor volume versus non-administered, un-irradiated group” value in data set [3] (Example V-1, FIG. 3, drug alone (un-irradiated), 2 mg/kg once a day Day 1 to Day 5, from about Day 10) is recorded as “fell below that in the (1) non-administered, un-irradiated group”. Further, the “increment in the tumor volume versus non-administered, un-irradiated group” value in data set [3] (Example V-2, FIG. 4, drug alone (un-irradiated), 1 mg/kg once a day Day 1 to Day 5) is “smaller than that in the (1) non-administered, un-irradiated group”. Also, in data set [7] (25° C.), the “solubility evaluation by the criteria of the general rules Japanese Pharmacopeia” value is reported as “readily soluble”. In data set [7] (strongly shaken at 25° C.), the “dissolution in injectable water” value is given as “immediately dissolved”. Also, in the data set with SD rats (25 to 800 mg/kg, observed for two days), the “mortality during the test period” value is reported as “No individual died”. Besides, in the data set with SD rats (estimated), the lethal dose result is recorded as “higher than 800 mg/kg”.
Regarding `CCCCCCCCCCCCCCCCCCCCCC(=O)OCCCO[C@H]1O[C@H](CS(=O)(=O)[O-])[C@@H](O)[C@H](O)[C@H]1O.[Na+]` [αSQAP C22:0, 3-O-(6-sulfo-α-D-quinovopyranosyl)-1-O-behenoyl-propane-1,3-diol sodium salt], the tube formation result in data set [2] (setting [9]) is on record as “inhibited tube formation in a concentration-dependent manner”.
As to `CCCCCCCCCCCCCCCCCC(=O)OCC(O)CO[C@H]1O[C@H](CS(=O)(=O)[O-])[C@@H](O)[C@H](O)[C@H]1O.[Na+]` (stereo partly drawn) [αSQMG C18:0, 3-O-(6-sulfo-α-D-quinovopyranosyl)-1-O-stearoyl-glycerol sodium salt, reference compound], the “increase of the tumor volume … with other groups” value in data set [3] (Example V-1, FIG. 3, 2 mg/kg once a day Day 1 to Day 5 plus X-ray 2 Gy on Day 1 and Day 4) is “most suppressed”.
With `CCCCCCCCCCCCCCCCCC(=O)OCCCO[C@@H]1O[C@H](CS(=O)(=O)[O-])[C@@H](O)[C@H](O)[C@H]1O.[Na+]` [βSQAP C18:0, 3-O-(6-sulfo-β-D-quinovopyranosyl)-1-O-stearoyl-propane-1,3-diol sodium salt], in data set [2] (setting [11]), the tube formation entry is reported as “inhibited tube formation in a concentration-dependent manner”.
The same measure, in the same setting: as for `CCCCCCCC/C=C\CCCCCCCC(=O)OCCCO[C@@H]1O[C@H](CS(=O)(=O)[O-])[C@@H](O)[C@H](O)[C@H]1O.[Na+]` [βSQAP C18:1, 3-O-(6-sulfo-β-D-quinovopyranosyl)-1-O-oleoyl-propane-1,3-diol sodium salt], the entry is “inhibited tube formation in a concentration-dependent manner”.
